{"source": "patent US20250332117A1", "about": "“Thin Films with Peroxides and Uses Thereof” (Silverpeutics, Inc., priority 2024, published 2025)", "origin": "cited, not measured here", "key": {"cells": {"system": "cells", "conditions": "general statement, no source given"}, "bacteria": {"system": "bacteria", "conditions": "general statement, no source given"}}}
{"smiles": "OO", "note": "[peroxide, Hydrogen peroxide]", "values": [{"measurement": "peroxide concentration at which cell killing is observed", "setting": "cells", "value": "above 500 μM"}, {"measurement": "peroxide concentration at which partial bacteriostatic effects are observed", "setting": "bacteria", "value": "25 to 50", "unit": "µM"}]}
